Experimental data as given in article PMC9965125, “New NSAID Conjugates as Potent and Selective COX-2 Inhibitors: Synthesis, Molecular Modeling and Biological Investigation” (Molecules, 2023).
Several values for one entry are separate records, joined by “and”; a condition that tells them apart may be missing. Equal entries are not always repeated.

Experiments:
[1] = system: carrageenan induced paw edema; assay: carrageenan-induced rat paw edema; type: in vivo; conditions: for % Inhibition of Edema ± Standard Error / Mean Edema Thickness: 10 mg/kg indomethacin mol equivalent i.p.; for Mean Edema Thickness: ± standard error
[2] = system: hot plate latency; assay: hot plate assay (central analgesic); type: in vivo, mice; conditions: for % Protection / Latency Period ± SE: 10 mg/kg indomethacin mol equivalent i.p.; for Latency Period ± SE: cutoff 15 sec; for Potency: at 120 min compared to indomethacin
[3] = system: mice; assay: toxicological bioassay; type: in vivo; conditions: five times the anti-inflammatory dose (50 mg/kg indomethacin mol equivalent); recorded 24 h post-administration
Procedure: Five times the anti-inflammatory dose was orally administrated. […]
5a, 5b, 5d, 5e) was determined utilizing the standard method in mice. Albino mice weighing 20–25 g were divided into 6 groups of 6 mice each. Administrations of the tested compounds dissolved in distilled water by the aid of few drops of Tween 80 were given intraperitoneally in 50 […]
inflammatory dosage). The control group was given water only with few drops of Tween 80. The toxic symptoms and mortality rates were recorded 24 h post -administration in each group.

[4] = molecular target: T1, COX-2 (Homo sapiens, UniProt P35354); assay: COX-2 inhibitor screening assay (fluorometric kit); type: biochemical; conditions: for SI: SI = IC50 (COX-1)/IC50 (COX-2); for IC50: read-out: IC50, μM ± SD COX-2
T1 construct: purchased BioVision Incorporated K547-100 and K548-100
T1 sequence (P35354 18-604): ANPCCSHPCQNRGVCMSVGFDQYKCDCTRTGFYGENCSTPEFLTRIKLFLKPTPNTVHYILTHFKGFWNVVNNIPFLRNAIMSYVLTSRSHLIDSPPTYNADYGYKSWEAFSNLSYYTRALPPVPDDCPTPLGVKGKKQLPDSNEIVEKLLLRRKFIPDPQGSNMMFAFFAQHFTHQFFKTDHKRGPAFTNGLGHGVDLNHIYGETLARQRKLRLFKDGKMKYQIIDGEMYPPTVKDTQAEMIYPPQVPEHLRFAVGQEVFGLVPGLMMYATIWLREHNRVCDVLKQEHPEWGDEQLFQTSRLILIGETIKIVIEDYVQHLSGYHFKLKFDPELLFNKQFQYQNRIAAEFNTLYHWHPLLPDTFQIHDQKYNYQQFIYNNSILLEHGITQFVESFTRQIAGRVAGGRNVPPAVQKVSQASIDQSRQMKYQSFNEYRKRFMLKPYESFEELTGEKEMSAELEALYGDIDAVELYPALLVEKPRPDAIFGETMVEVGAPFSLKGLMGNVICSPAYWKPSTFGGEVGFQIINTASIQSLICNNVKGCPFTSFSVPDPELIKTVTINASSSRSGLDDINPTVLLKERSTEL
Procedure: the manufactor’s instructions.
The COX-1/2 inhibitor screening protocols can be summarized in following:
The test compound is dissolved in DMSO. Dilute to 10X the desired test concentration with COX-1 Assay Buffer before use. Add 10 μl diluted test inhibitor or Assay Buffer into assigned wells as sample screen [S] or Enzyme Control [EC] (no inhibitor) respectively. Add 2 μl of SC560 (in case […]
the wells as Inhibitor Control [IC].
Dilute COX Cofactor 200 times by adding 2 μl of COX Cofactor to 398 μl of COX Assay Buffer just before use. Mix well. Prepare Arachidonic Acid solution by adding 5 μl of supplied Arachidonic Acid to 5 μl of NaOH just before use. Vortex briefly to mix. Dilute Arachidonic Acid/NaOH solution 10 times by adding 90 μl ddH2O, vortex briefly to mix. Make as much as […]
For each well, prepare 80 μl of master mix as follows:
Diluted COX Cofactor 2 μl
Add 80 μl of Reaction Mix into each well. Use a multi -channel pipette to add 10 μl of diluted Arachidonic Acid/NaOH solution into each well to initiate all the reactions at the same time.
(T1 and T2) in the linear range of the plot and obtain the corresponding fluorescence values (RFU 1 […]
Calculate the slope for all samples, including Enzyme Control (EC), by dividing the net ΔRFU (RFU2 – RFU1) values by the time ΔT (T2 – T1). Calculate % Relative Inhibition as follows:
% Relative Inhibition = Slope of EC − Slope of S X 100

Structure (SMILES) | % Inhibition of Edema ± Standard Error ([1]; 4 h) [%] | % Inhibition of Edema ± Standard Error ([1]; 24 h) [%] | % Protection ([2]; after 30 min) [%] | Latency Period ± SE ([2]; after 30 min) [s] | % Protection ([2]; after 60 min) [%] | Latency Period ± SE ([2]; after 60 min) [s] | % Protection ([2]; after 90 min) [%] | Latency Period ± SE ([2]; after 90 min) [s] | % Protection ([2]; after 120 min) [%] | Latency Period ± SE ([2]; after 120 min) [s] | Potency [2] | toxic symptoms or mortality [3] | SI [4] | IC50 [4] [µM] | further results
C#CCOC(=O)C(C)c1ccc(CC(C)C)cc1 (stereo not shown) [Compound 3, Prop-2-yn-1-yl 2-(4-isobutylphenyl) Propanoate] | 33.7 ± 1.2 | 0.00 ± 0.3 | 55.2 | 10.37 ± 1.6 | 48.3 | 10.78 ± 2.1 | 19.2 | 10.62 ± 2.2 | 14.9 | 10.35 ± 1.7 | 26.4 | No toxic symptoms or mortality | 2.262 | 8.6 ± 0.24 | % Inhibition of Edema ± Standard Error ([1]; 1 h): 15.8 ± 1.9%; Mean Edema Thickness ([1]; 1 h): 0.727 ± 0.05 mm; % Inhibition of Edema ± Standard Error ([1]; 2 h): 17.4 ± 0.9%; Mean Edema Thickness ([1]; 2 h): 0.589 ± 0.01 mm; % Inhibition of Edema ± Standard Error ([1]; 3 h, 10 mg/kg): 85.8% and 85.8 ± 1.1%; Mean Edema Thickness ([1]; 3 h): 0.103 ± 0.04 mm; Mean Edema Thickness ([1]; 4 h): 0.473 ± 0.03 mm; Mean Edema Thickness ([1]; 24 h): 0.920 ± 0.02 mm; % Potency ([1]; % inhibition of edema thickness relative to indomethacin at 3 h): 105.8%
Cc1ccc(-n2cc(COC(=O)C(C)c3ccc(CC(C)C)cc3)nn2)cc1 (stereo not shown) [Compound 5d, (1-(p-Tolyl)-1H-1,2,3-triazol-4-yl)methyl 2-(4-isobutylphenyl)propanoate] |  | 0.00 ± 1.7 | 65.0 | 11.02 ± 1.4 | 35.6 | 9.86 ± 0.7 | 20.0 | 10.69 ± 0.9 | 1.2 | 9.12 ± 1.1 | 2.1 | No toxic symptoms or mortality | 2.158 | 4.47 ± 0.13 | 
COc1ccccc1-n1cc(COC(=O)C(C)c2ccc(CC(C)C)cc2)nn1 (stereo not shown) [Compound 5e, (1-(2-Methoxyphenyl)-1H-1,2,3-triazol-4-yl)methyl 2-(4-isobutylphenyl)propanoate] | 7.4 ± 1.8 |  | 88.8 | 12.61 ± 2.1 | 44.8 | 10.53 ± 1.8 | 36.03 | 12.12 ± 1.7 |  | 11.53 ± 1.3 | 49.6 | No toxic symptoms or mortality | 0.387 | 14 ± 0.4 | % Protection ([2]; after 120 min, 10 mg/kg): 28%
